Tested on: Akt phosphorylation in Panc1 (G12D) cells
Assay: In-Cell Western Akt phosphorylation
Assay type: cell-based
Settings: EC50, one hour treatment; read-out: In-Cell Western Akt phosporylation Panc1 (G12D)
Method: (§1) In-cell phosphorylation assays for Erk and Akt were performed on various of the compounds and exemplary results are shown in Table 3 below using […] and Panc10.05 cell lines for G12D K-ras mutants.
(§2) Cells are seeded in complete medium into black sided, clear-bottom 384-well microplates at 3000 cells/[…]/well. Plates are returned to 37° C. CO2 incubator for 18 hr. Drug is made as 200× in DMSO and diluted into medium to 10×. To each well is added 4 ul 10× test article or controls, and plates are returned to the incubator. Final assay DMSO concentration is 0.5%. After one hour, cells are fixed in formaldehyde, rinsed & permeabilized with triton X-100, and blocked with BSA/Goat serum blocking solution. Primary phospho-Akt and phospho-ERK antibodies are added and plates are incubated overnight at 4° C. Plates are rinsed with Tween-20 wash buffer and secondary antibody (Goat anti-rabbit, Thermofisher) is added. After 2 hours, plates are rinsed in Tween-20 wash buffer, and then PBS. Plates are imaged on the Celigo (Nexcelom) and cellular fluorescence is quantitated. Full inhibition of phospho-Akt is achieved with 1 uM BEZ235 (Sellekchem), while full inhibition of phospho-ERK is achieved with 1 uM MEK Inhibitor II Calbiochem). EC50 values are calculated using Graphpad Prism.

Row | SMILES | EC50 [µM]
1 | CCc1nc(C)c(C(=O)Nc2nc(-c3ccc4c(c3)CCC(=O)N4)cs2)s1 [Compound 4891] | 7
2 | Cc1nc(C2CCOC2)sc1C(=O)Nc1nc(-c2ccc3c(c2)CCC(=O)N3)cs1 (stereo not shown) [Compound 4892] | 12
3 | Cc1nc(Cc2ccccn2)sc1C(=O)Nc1nc(-c2ccc3c(c2)CCC(=O)N3)cs1 [Compound 4893] | > 25
4 | Cc1nc(-n2ccnc2)sc1C(=O)Nc1nc(-c2ccc3c(c2)CCC(=O)N3)cs1 [Compound 4894] | > 25
5 | Cc1nc(N2CCOCC2)sc1C(=O)Nc1nc(-c2ccc3c(c2)CCC(=O)N3)cs1 [Compound 4895] | > 25
6 | COCCOc1nc(C)c(C(=O)Nc2nc(-c3ccc4c(c3)CCC(=O)N4)cs2)s1 [Compound 4896] | 14

Tested on: Akt phosphorylation in Panc10.05 (G12D) cells
Assay: In-Cell Western Akt phosphorylation
Assay type: cell-based
Settings: EC50, one hour treatment; read-out: In-Cell Western Akt phosporylation Panc10.05 (G12D)
Method: as §1, §2

Row | SMILES | EC50 [µM]
7 | CCc1nc(C)c(C(=O)Nc2nc(-c3ccc4c(c3)CCC(=O)N4)cs2)s1 [Compound 4891] | 3
8 | Cc1nc(C2CCOC2)sc1C(=O)Nc1nc(-c2ccc3c(c2)CCC(=O)N3)cs1 (stereo not shown) [Compound 4892] | 6
9 | Cc1nc(Cc2ccccn2)sc1C(=O)Nc1nc(-c2ccc3c(c2)CCC(=O)N3)cs1 [Compound 4893] | > 25
10 | Cc1nc(-n2ccnc2)sc1C(=O)Nc1nc(-c2ccc3c(c2)CCC(=O)N3)cs1 [Compound 4894] | > 25
11 | Cc1nc(N2CCOCC2)sc1C(=O)Nc1nc(-c2ccc3c(c2)CCC(=O)N3)cs1 [Compound 4895] | > 25
12 | COCCOc1nc(C)c(C(=O)Nc2nc(-c3ccc4c(c3)CCC(=O)N4)cs2)s1 [Compound 4896] | 12

Biological target: K-ras G12V (Homo sapiens, UniProt P01116, G12V)
Assay: G-LISA Ras activation assay, 293H cells transfected with G12V mutant
Assay type: cell-based
Settings: Table 1; G-LISA, 293H transfected, 1 hour treatment; read-out: IC50 (μM) G12V
Method: (§3) 293H cells were seeded in 6-wells at 0.6×10^6 cells per well and transfected next day with 5 μg of Ras wild-type, or G12C, G12D or G12V mutant DNA plasmid vector using transfection reagent Lipofectamine 3000. Next day cells were treated with 3.125-50 μM of Ras compounds for 1 hour. Wild-type transfected cells were subsequently treated with 100 ng/ml EGF for 2 minutes. Cells were washed once in ice-cold PBS, lysed in complete lysis buffer on ice, and processed by G-LISA according to Cytoskeleton protocol.
(§4) In-cell selectivity of the compounds presented herein against a specific K-ras mutant form can also be tested as shown in the following exemplary experiment. 293H cells were seeded in 6-wells and transfected next day with 5 μg of Ras wild-type, or G12C, G12D or G12V mutant DNA plasmid vector. Next day cells were treated with 3.125-50 μM of Ras compounds for 1 hour. Wild-type transfected cells were subsequently treated with 100 ng/ml EGF for 2 minutes. Cells were washed once in ice-cold PBS, lysed in complete lysis buffer on ice, and processed by G-LISA according to Cytoskeleton protocol. FIG. 1 depicts exemplary results.
as §3, with “In still further experiments, the inventors tested selected compounds in a G-LISA assay to compare IC50 values for wild-type and various mutant K-Ras (G12D, G12V) using the following general protocol: 293H” for “293H”

Chain of K-ras G12V (P01116 1-188 isoform P01116-2 G12V): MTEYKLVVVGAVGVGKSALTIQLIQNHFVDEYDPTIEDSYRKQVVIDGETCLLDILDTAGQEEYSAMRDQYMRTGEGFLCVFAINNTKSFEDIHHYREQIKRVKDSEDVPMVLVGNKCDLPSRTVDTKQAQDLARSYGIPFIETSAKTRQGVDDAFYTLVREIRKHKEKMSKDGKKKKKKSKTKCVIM

Row | SMILES | IC50 [µM]
13 | CCc1nc(C)c(C(=O)Nc2nc(-c3ccc4c(c3)CCC(=O)N4)cs2)s1 [Compound 4891] | 9.3

Biological target: K-ras G12D (Homo sapiens, UniProt P01116, G12D)
Assay: G-LISA Ras activation assay, 293H cells transfected with G12D mutant
Assay type: cell-based
Settings: Table 1; G-LISA, 293H transfected, 1 hour treatment; read-out: IC50 (μM) G12D
Method: as §3, §4
as §3, with “In still further experiments, the inventors tested selected compounds in a G-LISA assay to compare IC50 values for wild-type and various mutant K-Ras (G12D, G12V) using the following general protocol: 293H” for “293H”

Chain of K-ras G12D (P01116 1-188 isoform P01116-2 G12D): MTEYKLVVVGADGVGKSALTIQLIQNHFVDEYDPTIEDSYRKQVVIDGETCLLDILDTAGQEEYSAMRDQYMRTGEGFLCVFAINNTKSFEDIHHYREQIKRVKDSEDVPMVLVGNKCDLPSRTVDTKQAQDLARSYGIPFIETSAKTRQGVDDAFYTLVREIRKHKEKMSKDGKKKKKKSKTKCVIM

Row | SMILES | IC50 [µM]
14 | CCc1nc(C)c(C(=O)Nc2nc(-c3ccc4c(c3)CCC(=O)N4)cs2)s1 [Compound 4891] | 5
15 | Cc1nc(C2CCOC2)sc1C(=O)Nc1nc(-c2ccc3c(c2)CCC(=O)N3)cs1 (stereo not shown) [Compound 4892] | 6.5

Tested on: Erk phosphorylation in Panc10.05 (G12D) cells
Assay: In-Cell Western Erk phosphorylation
Assay type: cell-based
Settings: EC50, one hour treatment; read-out: In-Cell Western Erk phosporylation Panc10.05 (G12D)
Method: as §1, §2

Row | SMILES | EC50 [µM]
16 | CCc1nc(C)c(C(=O)Nc2nc(-c3ccc4c(c3)CCC(=O)N4)cs2)s1 [Compound 4891] | 2
17 | Cc1nc(C2CCOC2)sc1C(=O)Nc1nc(-c2ccc3c(c2)CCC(=O)N3)cs1 (stereo not shown) [Compound 4892] | 2
18 | Cc1nc(Cc2ccccn2)sc1C(=O)Nc1nc(-c2ccc3c(c2)CCC(=O)N3)cs1 [Compound 4893] | > 25
19 | Cc1nc(-n2ccnc2)sc1C(=O)Nc1nc(-c2ccc3c(c2)CCC(=O)N3)cs1 [Compound 4894] | > 25
20 | Cc1nc(N2CCOCC2)sc1C(=O)Nc1nc(-c2ccc3c(c2)CCC(=O)N3)cs1 [Compound 4895] | > 25
21 | COCCOc1nc(C)c(C(=O)Nc2nc(-c3ccc4c(c3)CCC(=O)N4)cs2)s1 [Compound 4896] | 8

Tested on: Erk phosphorylation in Panc1 (G12D) cells
Assay: In-Cell Western Erk phosphorylation
Assay type: cell-based
Settings: EC50, one hour treatment; read-out: In-Cell Western Erk phosporylation Panc1 (G12D)
Method: as §1, §2

Row | SMILES | EC50 [µM]
22 | CCc1nc(C)c(C(=O)Nc2nc(-c3ccc4c(c3)CCC(=O)N4)cs2)s1 [Compound 4891] | 2
23 | Cc1nc(C2CCOC2)sc1C(=O)Nc1nc(-c2ccc3c(c2)CCC(=O)N3)cs1 (stereo not shown) [Compound 4892] | 5
24 | Cc1nc(Cc2ccccn2)sc1C(=O)Nc1nc(-c2ccc3c(c2)CCC(=O)N3)cs1 [Compound 4893] | > 25
25 | Cc1nc(-n2ccnc2)sc1C(=O)Nc1nc(-c2ccc3c(c2)CCC(=O)N3)cs1 [Compound 4894] | > 25
26 | Cc1nc(N2CCOCC2)sc1C(=O)Nc1nc(-c2ccc3c(c2)CCC(=O)N3)cs1 [Compound 4895] | > 25
27 | COCCOc1nc(C)c(C(=O)Nc2nc(-c3ccc4c(c3)CCC(=O)N4)cs2)s1 [Compound 4896] | 8

Tested on: HCT116 (G13D) cells
Assay: 72 hr cell viability (CellTiterBlue)
Assay type: cell-based
Settings: GI50, 72 hr
Method: (§5) Viability assays were performed on exemplary compounds and Table 2 below lists exemplary results for selected compounds tested on wild type (Ishikawa) and various K-ras mutants (Panc1-G12D; Panc10.05-G12D; HCT116-G13D).
(§6) Cells are counted and seeded at 1000 cells/36 ul medium/well into 384-well microplates. Cells are returned to 37° C. CO2 incubator for 18 hr. Drug is made as 200× in DMSO and diluted into medium to 10×. To each well is added 4 ul 10× drug, and plates are returned to the incubator. Final assay DMSO concentration is 0.5%. After 72 hr, 8 ul CellTiterBlue (Promega) is added to each well. After 3 hr, fluorescence (Ex550/Em590) is determined on the Victor Plate Reader (Perkin Elmer). Assay range is determined by DMSO control (100% viability) and 100 uM tamoxifen (0% viability). GI50 values are calculated using Graphpad Prism.

Row | SMILES | IC50 [µM]
28 | CCc1nc(C)c(C(=O)Nc2nc(-c3ccc4c(c3)CCC(=O)N4)cs2)s1 [Compound 4891] | 13
29 | Cc1nc(C2CCOC2)sc1C(=O)Nc1nc(-c2ccc3c(c2)CCC(=O)N3)cs1 (stereo not shown) [Compound 4892] | 14
30 | Cc1nc(Cc2ccccn2)sc1C(=O)Nc1nc(-c2ccc3c(c2)CCC(=O)N3)cs1 [Compound 4893] | ≥ 25
31 | Cc1nc(-n2ccnc2)sc1C(=O)Nc1nc(-c2ccc3c(c2)CCC(=O)N3)cs1 [Compound 4894] | ≥ 25
32 | Cc1nc(N2CCOCC2)sc1C(=O)Nc1nc(-c2ccc3c(c2)CCC(=O)N3)cs1 [Compound 4895] | ≥ 25
33 | COCCOc1nc(C)c(C(=O)Nc2nc(-c3ccc4c(c3)CCC(=O)N4)cs2)s1 [Compound 4896] | 22

Tested on: Panc1 (G12D) cells
Assay: 72 hr cell viability (CellTiterBlue)
Assay type: cell-based
Settings: GI50, 72 hr
Method: as §5, §6

Row | SMILES | IC50 [µM]
34 | CCc1nc(C)c(C(=O)Nc2nc(-c3ccc4c(c3)CCC(=O)N4)cs2)s1 [Compound 4891] | 11
35 | Cc1nc(C2CCOC2)sc1C(=O)Nc1nc(-c2ccc3c(c2)CCC(=O)N3)cs1 (stereo not shown) [Compound 4892] | 17
36 | Cc1nc(Cc2ccccn2)sc1C(=O)Nc1nc(-c2ccc3c(c2)CCC(=O)N3)cs1 [Compound 4893] | ≥ 25
37 | Cc1nc(-n2ccnc2)sc1C(=O)Nc1nc(-c2ccc3c(c2)CCC(=O)N3)cs1 [Compound 4894] | ≥ 25
38 | Cc1nc(N2CCOCC2)sc1C(=O)Nc1nc(-c2ccc3c(c2)CCC(=O)N3)cs1 [Compound 4895] | ≥ 25
39 | COCCOc1nc(C)c(C(=O)Nc2nc(-c3ccc4c(c3)CCC(=O)N4)cs2)s1 [Compound 4896] | ≥ 25

Tested on: Ishikawa (K-Ras wild-type) cells
Assay: 72 hr cell viability (CellTiterBlue)
Assay type: cell-based
Settings: GI50, 72 hr
Method: as §5, §6

Row | SMILES | IC50 [µM]
40 | CCc1nc(C)c(C(=O)Nc2nc(-c3ccc4c(c3)CCC(=O)N4)cs2)s1 [Compound 4891] | 12
41 | Cc1nc(C2CCOC2)sc1C(=O)Nc1nc(-c2ccc3c(c2)CCC(=O)N3)cs1 (stereo not shown) [Compound 4892] | 14
42 | Cc1nc(Cc2ccccn2)sc1C(=O)Nc1nc(-c2ccc3c(c2)CCC(=O)N3)cs1 [Compound 4893] | ≥ 25
43 | Cc1nc(-n2ccnc2)sc1C(=O)Nc1nc(-c2ccc3c(c2)CCC(=O)N3)cs1 [Compound 4894] | ≥ 25
44 | Cc1nc(N2CCOCC2)sc1C(=O)Nc1nc(-c2ccc3c(c2)CCC(=O)N3)cs1 [Compound 4895] | ≥ 25
45 | COCCOc1nc(C)c(C(=O)Nc2nc(-c3ccc4c(c3)CCC(=O)N4)cs2)s1 [Compound 4896] | 19

Tested on: Panc10.05 (G12D) cells
Assay: 72 hr cell viability (CellTiterBlue)
Assay type: cell-based
Settings: GI50, 72 hr
Method: as §5, §6

Row | SMILES | IC50 [µM]
46 | CCc1nc(C)c(C(=O)Nc2nc(-c3ccc4c(c3)CCC(=O)N4)cs2)s1 [Compound 4891] | 4
47 | Cc1nc(C2CCOC2)sc1C(=O)Nc1nc(-c2ccc3c(c2)CCC(=O)N3)cs1 (stereo not shown) [Compound 4892] | 6
48 | Cc1nc(Cc2ccccn2)sc1C(=O)Nc1nc(-c2ccc3c(c2)CCC(=O)N3)cs1 [Compound 4893] | ≥ 25
49 | Cc1nc(-n2ccnc2)sc1C(=O)Nc1nc(-c2ccc3c(c2)CCC(=O)N3)cs1 [Compound 4894] | ≥ 25
50 | Cc1nc(N2CCOCC2)sc1C(=O)Nc1nc(-c2ccc3c(c2)CCC(=O)N3)cs1 [Compound 4895] | ≥ 25
51 | COCCOc1nc(C)c(C(=O)Nc2nc(-c3ccc4c(c3)CCC(=O)N4)cs2)s1 [Compound 4896] | ≥ 25

Biological target: K-Ras wild-type (Homo sapiens, UniProt P01116)
Assay: G-LISA Ras activation assay, 293H cells transfected with Ras wild-type, EGF-stimulated
Assay type: cell-based
Settings: Table 1; G-LISA, 293H transfected, 1 hour treatment, 100 ng/ml EGF; read-out: IC50 (μM) Wild-type
Method: as §3, §4
as §3, with “In still further experiments, the inventors tested selected compounds in a G-LISA assay to compare IC50 values for wild-type and various mutant K-Ras (G12D, G12V) using the following general protocol: 293H” for “293H”

Chain of K-Ras wild-type (P01116 1-188 isoform P01116-2): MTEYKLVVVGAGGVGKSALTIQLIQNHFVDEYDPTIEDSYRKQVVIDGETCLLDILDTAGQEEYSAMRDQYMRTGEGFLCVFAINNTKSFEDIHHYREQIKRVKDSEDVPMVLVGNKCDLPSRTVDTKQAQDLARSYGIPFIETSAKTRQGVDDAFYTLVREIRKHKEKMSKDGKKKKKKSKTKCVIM

Row | SMILES | IC50 [µM]
52 | CCc1nc(C)c(C(=O)Nc2nc(-c3ccc4c(c3)CCC(=O)N4)cs2)s1 [Compound 4891] | 11.5

— patent US10487078B2, “Compositions and methods of targeting mutant K-RAS” (NantBio, Inc., priority 2015, dated 2019)
